Holding throughout (assay type): cell-based
In assay [1] the test system is GP5d cells. Briefly: GP5d cell proliferation assay (colorectal cancer, G12D), 5 days. The following applies: Homo sapiens, 120 h. The method, boiled down: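 Cells in DMEM + 10% FCS received logarithmic compound dilutions (DMSO-normalized) and were grown for 5 days. Viability read by CellTiter-Glo luminescence as percent of DMSO controls, with a T0 reading at compound addition; IC50 from a four-parameter logistic fit.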

In assay [2] the target is T1, KRAS4B G13D (Homo sapiens, UniProt P01116, G13D).
T1 construct: HiBit; expressed in transfected cells; host or cells: GP5d cells (ECACC 95090715), stably transduced with lentivirus, CMV promoter
T1 sequence (P01116 1-188 isoform P01116-2 G13D): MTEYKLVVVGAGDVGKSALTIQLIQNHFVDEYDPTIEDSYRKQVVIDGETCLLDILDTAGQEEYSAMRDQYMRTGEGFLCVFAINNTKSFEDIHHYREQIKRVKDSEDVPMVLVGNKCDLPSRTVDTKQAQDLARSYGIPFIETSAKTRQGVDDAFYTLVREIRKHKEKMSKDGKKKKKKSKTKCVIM
Briefly: HiBit KRAS4B mutant spectrum degradation assay, KRAS4B G13D in GP5d cells (18 h). To be noted: KRAS mutation G13D. The source says: (§1) The therapeutically relevant mutant KRAS constructs (WT, G12C, G12D, G12V, G13D) were obtained by site directed mutagenesis using a KRAS4B WT cDNA construct as a template. GP5d cells (ECACC Cat. No. 95090715) were transduced with lentiviral vectors expressing mutant KRAS4B cDNA under control of a CMV promoter. Stably transduced cells were selected using a neomycin selectable marker encoded on the construct.
(§2) To assess PROTAC-mediated degradation of various KRAS mutants, GP5d cells stably transduced with KRAS4B constructs as described above were seeded at 25000 cells per well in 100 μL Dulbecco's Modified Eagle medium (Sigma cat. no. D6429) supplemented with 10% fetal calf serum into white bottom opaque 96 well plates (Perkin Elmer cat no. 5680). Plates were incubated at 37° C., 5% CO2 in a humidified incubator over night to allow the cells to adhere. […] Plates were further incubated at 37° C. for 18 hours. Following incubation, 100 μL per well Promega Nano-Glo HiBit lytic detection reagent mix (Promega Nano-Glo HiBit Lytic Detection System #N3050), prepared according to the manufacturer's instructions in the kit, were added. To allow for adequate cell lysis, plates were incubated on an orbital shaker for 15 min and further incubated 30 min at room temperature. Upon completion of cell lysis, luminescence was measured using an Envision plate reader using the Ultrasensitive Luminescence Protocol for 96 well plates. Luminescence levels were normalized by the values obtained with DMSO-treated samples and plotted as percent of DMSO control. DC50 values were computed using a four parametric logistic model and are reported in nM in Table 65 for representative example (Ex.) compounds of the invention. Dmax values represent the maximal extent of degradation observed and is stated as percent of control (% Ctrl.) treatments in Table 66 for representative example (Ex.) compounds of the invention.
(In general: The HiBiT peptide binds its large partner to form an active luciferase.)

Assay [3] addresses T2, KRAS4B WT (Homo sapiens, UniProt P01116).
T2 construct: HiBit; expressed in transfected cells; host or cells: GP5d cells (ECACC 95090715), stably transduced with lentivirus, CMV promoter
Briefly: HiBit KRAS4B mutant spectrum degradation assay, KRAS4B WT in GP5d cells (18 h). The following applies: KRAS mutation G12WT.
Description: as §1, §2

In assay [4] the target is T3, KRAS4B G12C (Homo sapiens, UniProt P01116, G12C).
T3 construct: HiBit; expressed in transfected cells; host or cells: GP5d cells (ECACC 95090715), stably transduced with lentivirus, CMV promoter
T3 sequence (P01116 1-188 isoform P01116-2 G12C): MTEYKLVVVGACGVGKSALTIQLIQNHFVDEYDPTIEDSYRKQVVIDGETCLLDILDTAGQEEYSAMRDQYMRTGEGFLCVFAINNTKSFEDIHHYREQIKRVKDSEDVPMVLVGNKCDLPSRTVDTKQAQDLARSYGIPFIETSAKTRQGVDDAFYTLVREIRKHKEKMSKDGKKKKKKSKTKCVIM
Briefly: HiBit KRAS4B mutant spectrum degradation assay, KRAS4B G12C in GP5d cells (18 h). The following applies: KRAS mutation G12C.
Description: as §1, §2

We go through nine compounds from patent publication US20250145608A1, “KRAS DEGRADING COMPOUNDS COMPRISING ANNULATED 2-AMINO-3-CYANO THIOPHENES” (Boehringer Ingelheim Int'l GmbH Corp., priority 2021, published 2025).

T2 sequence (P01116 1-188 isoform P01116-2): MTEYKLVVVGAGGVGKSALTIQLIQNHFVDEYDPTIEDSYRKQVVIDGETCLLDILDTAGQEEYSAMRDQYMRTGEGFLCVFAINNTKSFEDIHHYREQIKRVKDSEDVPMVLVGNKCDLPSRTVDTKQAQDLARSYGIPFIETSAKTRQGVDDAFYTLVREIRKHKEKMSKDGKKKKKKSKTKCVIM

By IC50 is commonly meant the concentration that gives 50% inhibition. Read a low IC50 as greater potency. In turn, `Cc1ncsc1-c1ccc(CNC(=O)[C@@H]2C[C@@H](O)CN2C(=O)[C@H](c2cc(OCCCN3CCCN(c4nccc(-c5noc([C@@]6(C)CCCc7sc(N)c(C#N)c76)n5)n4)[C@@H](C)C3)no2)C(C)C)cc1` (single isomer, unassigned) [I-24] showed an IC50 in assay [1] of 766 nM.

One may read the DC50 as the concentration at which degradation of the target reaches its halfway point. Consider `Cc1ncsc1-c1ccc(CNC(=O)[C@@H]2C[C@@H](O)CN2C(=O)[C@@H](c2cc(OCCCN3CCCN(c4nccc(-c5noc([C@@]6(C)CCCc7sc(N)c(C#N)c76)n5)n4)[C@@H](C)C3)no2)C(C)C)cc1` (single isomer, unassigned) [I-25], for which the DC50 in assay [2] turned out to be 2.5 nM; in assay [3], 0.8 nM; in assay [4], 1.9 nM. For the same compound, the results for the “Dmax at 18 h” value in assay [2], in assay [3] and in assay [4] were 94 % Ctrl, 96 % Ctrl and 92.5 % Ctrl, respectively. Also, 3.97 nM corresponded to half-maximal inhibition in assay [1] (IC50).

For the compound `Cc1ncsc1-c1ccc(CNC(=O)[C@@H]2C[C@@H](O)CN2C(=O)[C@@H](c2cc(OCCCCN3CCCN(c4nccc(-c5noc([C@@]6(C)CCCc7sc(N)c(C#N)c76)n5)n4)[C@@H](C)C3)no2)C(C)C)cc1` (single isomer, unassigned) [I-27], the DC50 amounted to 1.6 nM in assay [2], 0.7 nM in assay [3] and 3.7 nM in assay [4]. Also, the “Dmax at 18 h” value in assay [2] is given as 93 % Ctrl; in assay [3], 95.5 % Ctrl; in assay [4], 83 % Ctrl. Besides, it took 4 nM to reach half-maximal inhibition in assay [1] (IC50).

Turning to `Cc1ncsc1-c1ccc([C@@H](NC(=O)[C@@H]2C[C@@H](O)CN2C(=O)[C@H](C(C)C)n2cc(OCCCCN3CCCN(c4nccc(-c5noc([C@@]6(C)CCCc7sc(N)c(C#N)c76)n5)n4)[C@@H](C)C3)nn2)[C@H](C)O)cc1` (single isomer, unassigned) [I-41], the values for the DC50 in assay [2], in assay [3] and in assay [4] were 0.8 nM, 0.5 nM and 1.2 nM, respectively. Moreover, the “Dmax at 18 h” value in assay [2] came to 89.7 % Ctrl; in assay [3], 98.0 % Ctrl; in assay [4], 96.2 % Ctrl.

Turning to `Cc1ncsc1-c1ccc([C@@H](NC(=O)[C@@H]2C[C@@H](O)CN2C(=O)[C@H](C(C)C)n2cc(OCCCN3CCCN(c4nccc(-c5noc([C@@]6(C)CCCc7sc(N)c(C#N)c76)n5)n4)[C@@H](C)C3)nn2)[C@H](O)C(C)C)cc1` (single isomer, unassigned) [I-43], the DC50 in assay [2] stood at 1.1 nM; in assay [3] it was 0.5 nM; in assay [4], 1.1 nM. Besides, the “Dmax at 18 h” value stood at 90.4 % Ctrl in assay [2], 98.1 % Ctrl in assay [3] and 95.6 % Ctrl in assay [4].

As to `Cc1ncsc1-c1ccc(CNC(=O)[C@@H]2C[C@@H](O)CN2C(=O)C(c2cc(OCCCCN3CCCN(c4nccc(-c5cc([C@@]6(C)CCCc7sc(N)c(C#N)c76)on5)n4)[C@@H](C)C3)no2)C(C)C)cc1` (stereo partly shown) [I-4], the IC50 in assay [1] is 36.1 nM.

Turning to `Cc1ncsc1-c1ccc([C@H](CO)NC(=O)[C@@H]2C[C@@H](O)CN2C(=O)[C@H](C(C)C)n2cc(OCCCCN3CCCN(c4nccc(-c5noc([C@@]6(C)CCCc7sc(N)c(C#N)c76)n5)n4)[C@@H](C)C3)nn2)cc1` [I-29], the DC50 in assay [2] amounted to 1.2 nM; in assay [3], 0.8 nM; in assay [4] it was 1.4 nM. The “Dmax at 18 h” value worked out at 89.7 % Ctrl in assay [2], 97.2 % Ctrl in assay [3] and 95.6 % Ctrl in assay [4].

For the compound `Cc1ncsc1-c1ccc([C@H](CO)NC(=O)[C@@H]2C[C@@H](O)CN2C(=O)[C@H](C(C)C)n2cc(OCCCC(C)N3CCCN(c4nccc(-c5noc([C@@]6(C)CCCc7sc(N)c(C#N)c76)n5)n4)[C@@H](C)C3)nn2)cc1` (stereo partly shown) [I-30], the DC50 in assay [2] came out at 1 nM; in assay [3], 0.4 nM; in assay [4], 1.2 nM. For the same compound, the results for the “Dmax at 18 h” value in assay [2], in assay [3] and in assay [4] were 91.9 % Ctrl, 97.8 % Ctrl and 95.6 % Ctrl, respectively.

Turning to `Cc1ncsc1-c1ccc([C@H](CO)NC(=O)[C@@H]2C[C@@H](O)CN2C(=O)[C@H](C(C)C)n2cc(OC(C)CCCN3CCCN(c4nccc(-c5noc([C@@]6(C)CCCc7sc(N)c(C#N)c76)n5)n4)[C@@H](C)C3)nn2)cc1` (stereo partly shown) [I-31], the DC50 was 2.7 nM in assay [2], 1.7 nM in assay [3] and 3.6 nM in assay [4]. Moreover, the “Dmax at 18 h” value was found to be 89.7 % Ctrl in assay [2], 97.5 % Ctrl in assay [3] and 94.7 % Ctrl in assay [4].
